Tested on: MC3T3-E1 osteoblast cells
Experiment: ECM screen: adhesion of MC3T3-E1 cells to immobilized adhesion ligands (fluorescent nuclei count)
Format: cell-based
Settings: "best factors" approach
Source text: A statistical design was developed with special consideration of the surface chemistry requirements. In particular, in this experiment the scenario shown in FIG. 9 was used, wherein the overall adhesion ligand density was kept constant from well to well and only the adhesion ligand composition was allowed to change. In other words, the concentration of a single adhesion ligand could be different from well to well, but each well has the same amount of adhesion ligand immobilized overall. This scenario is further described above. An example of such design is shown in the spreadsheet in FIG. 10. The spreadsheet serves as a computer representation of the design which is stored in a database. The top row in […] lists the 10 factors […] used in this particular screen, and their corresponding identities. In the spreadsheet shown, Factor A represents fibronectin, Factor B represents Collagen I, etc. The first column is a list of the experimental points that translate into a well in the 96-well plate, e.g., 52 wells in this case. The numbers in the spreadsheet are the factor levels. In this example, these levels are the actual volumes (in μL) of factor that are added to a particular well. In this particular design, factors get added to the wells at three volumes, e.g., 5 μL, 25 μL, or 50 μL. The total well volume in this case is 50 μL. Thus, for wells where one factor is added at 50 μL, the final well composition will comprise a single adhesion ligand covalently immobilized on the well surface. Accordingly, if 25 μL of a factor is added to a well, a second factor is added at 25 μL also, and the final well composition will comprise a mixture of two different cell adhesion ligands covalently immobilized on the well surface. When 5 μL of a factor are added, nine other factors are added at 5 μL each, as well, thus resulting in wells that comprise a mixture of all 10 cell adhesion ligands on the well surface. These experimental points containing all 10 adhesion ligands are called “mid points” and are an integral part of the statistical design in this example.
With reference now to FIG. 11, a 96-well plate layout is shown, which was translated from the particular statistical design shown in FIG. 10. In particular, the 96-well plate includes the well compositions indicated in FIG. 10, e.g., cell adhesion ligand combinations immobilized at the bottom of each well. In particular, the experimental runs in FIG. 10 correspond to rows/columns in FIG. 11, as follows: runs 1-10 in the design in FIG. 10 represent row B, columns 2-11, respectively on the array in FIG. 11; runs 11-20 represent row C, columns 2-11; runs 21-30 represent row D, columns 2-11; runs 31-40 represent row E, columns 2-11; runs 41-50 represent row F, columns 2-11; and runs 51 and 52 represent row G, columns 2 and 3, respectively. As shown by the statistical design in FIG. 10 and the corresponding 96-well plate layout in FIG. 11 it is an embodiment of the present invention that, in addition to mixtures of agents, single agents can be placed in the receptacles.
Cells were removed from cell culture flasks using trypsin-EDTA according to methods well known in the art. Cells were enumerated, spun down and resuspended in media containing no serum or, alternatively, in media containing 10% fetal calf serum. Cells were plated into the wells of a 96-well microarray according to the layout shown in FIG. 11 and described in Example 3 above. The seeding density was about 10,000 cells per well. Cells were incubated on the plates overnight at 37° C. The following day, media and any cells not adhering to the immobilized agents on the well surfaces were removed. Any adhered cells were fixed by exposure to forrnalin for at least 15 minutes. Propidium iodite was used to fluorescently label the nuclei of said fixed adhered cells. […]

[1] = no serum, FIG. 14, deviation from mid-point reference blend

| Substance | effect on cell count (mixture-model analysis) (10% serum, FIG. 15) | effect on cell count (mixture-model analysis) [1] |
| --- | --- | --- |
| laminin | positive effect on cell count | increase the cell count |
| poly-L-lysine [reference compound] | diminishes | marginal effect |
| Collagen IV | positive effect on cell count | increase the cell count |

From patent US20050060100A1, “Computer software and algorithms for systems biologically linked to cellular phenotype” (Becton Dickinson and Company, priority 2003, published 2005)
